Measurements reported in PubChem BioAssay (NCI).
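Cells were grown in 96-well plates and exposed to each compound for 48 hours at five concentrations; endpoints were interpolated linearly between bracketing concentrations, or set to the highest concentration if not reached. TGI marks complete inhibition of growth.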

The molecules below were run on RXF 393 renal (assay: NCI-60 cell line screen, 48 h).
With `C[C@@H]1CC[C@@]2(C)C(C(=O)O)=CCCC2[C@@]1(C)CC(=O)c1ccoc1` (stereo not given in full) the TGI was > 25 µM. In the case of `O=C(CCc1cc(O)cc(O)c1)NCCc1cc(OCc2ccccc2)cc(OCc2ccccc2)c1`, the TGI is reported as 27.4 µM. `Clc1cccc(-c2sc(-c3cccs3)cc2Cc2cccs2)c1` was tested, and the TGI was > 10 µM. For `c1ccc(C2=NC3OC2c2ccccc23)cc1` (stereo not given), the TGI was > 10 µM. `CCOC(=O)CSc1nc(N)c2c(-c3ccccc3)c3c(nc2n1)CCCC3` was tested, and the TGI was > 100 µM. In the case of `COC(=O)/C=C(/C=C1/C(C#N)=C(N)N(c2ccc(Cl)cc2)C1(C)/C(=C\C(=O)OC)C(=O)OC)C(=O)OC` (stereo not given), the TGI is reported as 35.4 µM. `O=c1c2c3c(sc2[nH]c(=S)n1-c1ccccc1)CCCc1ccc([N+](=O)[O-])cc1-3` gave a TGI of 38.7 µM. For `CCOC(=O)c1c(N2CCCC2)[nH]c(=O)c(C(c2ccc(OC)cc2)c2c(O)c(C(=O)OCC)c(N3CCCC3)[nH]c2=O)c1O`, the TGI was > 100 µM. For `CCOC1C=CC(=O)C(CO)O1` (stereo not given), the TGI was 24.2 µM. With `CN(C)C(=O)C(F)(F)C(c1ccc(F)cc1)C1C(=O)N(C)C(=O)N(C)C1=O` (stereo not given) the TGI was > 100 µM. In the case of `O=c1[nH]c(NCc2ccncc2)nc2nc[nH]c12`, the TGI is reported as > 100 µM. `O=CC(I)=C(c1ccccc1)c1ccccc1` showed a TGI of 41.4 µM. For `c1c[nH]c(-c2cccc3nsnc23)c1`, the TGI was > 100 µM. `Cn1c2ccccc2c2ccc3c(c21)C(=O)c1ccc2c4ccccc4n(C)c2c1C3=O` was tested, and the TGI was > 100 µM. In the case of `Cc1ccc(-c2cc(-c3ccco3)c(C#N)c(=S)[nH]2)cc1`, the TGI is reported as > 100 µM. For `NS(=O)(=O)c1nnc(NC(=O)N(c2ccccc2)c2ccccc2)s1`, the TGI was 51.4 µM. `COCOc1ccc(C(=O)Oc2cccc3c2OC(C)(C)O3)c(OCOC)c1` was tested, and the TGI was > 100 µM. In the case of `CN(C)CCN(c1ccccn1)c1ccccn1`, the TGI is reported as > 100 µM. In the case of `O=C(O)c1nc2ccc(C(F)(F)F)cc2[nH]c1=O`, the TGI is reported as > 100 µM. With `COC(=O)CNC(=O)C(CSC(=O)OCC1c2ccccc2-c2ccccc21)NC(=O)CCC(NC(=O)OCC1c2ccccc2-c2ccccc21)C(=O)OC` (stereo not given) the TGI was 32 µM. `CC(C)NC(=O)OCc1c(COC(=O)NC(C)C)n(C)c2c1ccc1sccc12` was tested, and the TGI was 39.9 µM. With `O=C(CC(NC(=O)C(F)(F)F)C(=O)O)OCc1ccccc1` (stereo not given) the TGI was > 100 µM.

These molecules were tested on MCF7 breast (assay: NCI-60 cell line screen, 48 h).
`COc1ccc2ccc3oc(=O)c(C)cc3c2c1` was tested, and the TGI was > 100 µM. In the case of `CCCCCCN(CCCCCC)C(=S)N/N=C(\C)c1ccccn1`, the TGI is reported as 3.16 µM. In the case of `O=c1c(F)cn2c(=O)n1CCCCCCCn1c(=O)c(F)cn(c1=O)CCCCCCC2`, the TGI is reported as > 100 µM. With `Cc1nnc2n(c1=O)CCCN2C` the TGI was > 100 µM. `O=C(ON=C1c2ccccc2C(Br)C(Br)c2ccccc21)c1ccccc1` (stereo not given) gave a TGI of 31.5 µM. In the case of `Nc1ncnc2c1nnn2C1C=CC(CP(=O)(O)O)C1` (stereo not given), the TGI is reported as > 100 µM. `CC(=O)c1ccc(Oc2c3ccccc3nc3ccccc23)cc1` was tested, and the TGI was 12.1 µM. With `Cn1c2ccccc2n2c3ncccc3c(=O)c(C#N)c12` the TGI was 21.1 µM. In the case of `S=C(Cc1ccc2c(c1)Sc1ccccc1O2)N1CCOCC1`, the TGI is reported as > 100 µM. Molecule `C[n+]1cc2cc(O)c(O)cc2c2ccc3cc(O)c(O)cc3c21` has a TGI of 9.09 µM. With `COc1ccc(N=Nc2c(-c3c(OC)cc4occc4c3OC)[nH]c(=O)c(C#N)c2C)cc1` the TGI was > 100 µM. `O=C(/C=C/c1ccc(Cl)cc1)Oc1ccc(C=C2CCC/C(=C\c3ccc(OC(=O)/C=C/c4ccc(Cl)cc4)cc3)C2=O)cc1` was tested, and the TGI was > 100 µM. `COc1ccc2c(c1)c1c(n2CCN2CCCCC2)-c2cccc(OC)c2CC1` was tested, and the TGI was 35.4 µM. `COc1ccc2nc(NC(=O)/C(C#N)=C/c3ccccc3)sc2c1` was tested, and the TGI was > 100 µM. `Cc1c(C)n(-c2ccccc2)c2nc(S(C)=O)nc(S(C)=O)c12` (stereo not given) gave a TGI of 7.1 µM. In the case of `CC1(C)CC(=O)C2=C(C1)C(c1ccccc1Cl)C1C(=O)CC(C)(C)CC1(O)O2` (stereo not given), the TGI is reported as > 100 µM. `Cn1nc(-c2ccc(S(=O)(=O)/N=C(\NN)Nc3ccc(Cl)cc3)s2)cc1C(F)(F)F` showed a TGI of 44.5 µM. `Cc1ccc2c(c1C)C(=O)C1(Cc3cc4c(cc3C1=O)CCC4)C2` (stereo not given) was tested, and the TGI was > 100 µM. With `CCCCI(O)OS(=O)(=O)c1ccc(C)cc1` the TGI was > 100 µM. For `C[C@@H]1CC[C@@]2(C)C(C(=O)O)=CCCC2[C@@]1(C)CC(=O)c1ccoc1` (stereo not given in full), the TGI was > 25 µM. Work on `O=C(CCc1cc(O)cc(O)c1)NCCc1cc(OCc2ccccc2)cc(OCc2ccccc2)c1` yielded a TGI of 23.6 µM. In the case of `Clc1cccc(-c2sc(-c3cccs3)cc2Cc2cccs2)c1`, the TGI is reported as > 10 µM. In the case of `c1ccc(C2=NC3OC2c2ccccc23)cc1` (stereo not given), the TGI is reported as > 10 µM. `CCOC(=O)CSc1nc(N)c2c(-c3ccccc3)c3c(nc2n1)CCCC3` was tested, and the TGI was > 100 µM. `COC(=O)/C=C(/C=C1/C(C#N)=C(N)N(c2ccc(Cl)cc2)C1(C)/C(=C\C(=O)OC)C(=O)OC)C(=O)OC` (stereo not given) was tested, and the TGI was 46.2 µM. In the case of `O=c1c2c3c(sc2[nH]c(=S)n1-c1ccccc1)CCCc1ccc([N+](=O)[O-])cc1-3`, the TGI is reported as > 100 µM. For `CCOC(=O)c1c(N2CCCC2)[nH]c(=O)c(C(c2ccc(OC)cc2)c2c(O)c(C(=O)OCC)c(N3CCCC3)[nH]c2=O)c1O`, the TGI was > 100 µM. Molecule `CCOC1C=CC(=O)C(CO)O1` (stereo not given) has a TGI of 17.7 µM. For `CN(C)C(=O)C(F)(F)C(c1ccc(F)cc1)C1C(=O)N(C)C(=O)N(C)C1=O` (stereo not given), the TGI was > 100 µM. `Cc1c2cccc-2c2cc(O)c3ccccc3c2n1-c1ccc(N(C)C)cc1` showed a TGI of 17.4 µM. `O=c1[nH]c(NCc2ccncc2)nc2nc[nH]c12` was tested, and the TGI was > 100 µM. For `O=CC(I)=C(c1ccccc1)c1ccccc1`, the TGI was 31.9 µM. With `c1c[nH]c(-c2cccc3nsnc23)c1` the TGI was > 100 µM. `Cn1c2ccccc2c2ccc3c(c21)C(=O)c1ccc2c4ccccc4n(C)c2c1C3=O` was tested, and the TGI was > 100 µM. `Cc1ccc(-c2cc(-c3ccco3)c(C#N)c(=S)[nH]2)cc1` was tested, and the TGI was > 100 µM. `NS(=O)(=O)c1nnc(NC(=O)N(c2ccccc2)c2ccccc2)s1` was tested, and the TGI was > 100 µM. For `COCOc1ccc(C(=O)Oc2cccc3c2OC(C)(C)O3)c(OCOC)c1`, the TGI was > 100 µM. For `CN(C)CCN(c1ccccn1)c1ccccn1`, the TGI was > 100 µM. `O=C(O)c1nc2ccc(C(F)(F)F)cc2[nH]c1=O` was tested, and the TGI was > 100 µM. `CN(CCN1CCCC1)C1CCc2cc(Cl)c(Cl)cc2C1` (stereo not given) was tested, and the TGI was 29 µM. For `COC(=O)CNC(=O)C(CSC(=O)OCC1c2ccccc2-c2ccccc21)NC(=O)CCC(NC(=O)OCC1c2ccccc2-c2ccccc21)C(=O)OC` (stereo not given), the TGI was 42.8 µM. For `CC(C)NC(=O)OCc1c(COC(=O)NC(C)C)n(C)c2c1ccc1sccc12`, the TGI was > 55.5 µM. With `O=C(CC(NC(=O)C(F)(F)F)C(=O)O)OCc1ccccc1` (stereo not given) the TGI was > 100 µM. `CN(/N=C1\C(=O)Nc2ccccc21)c1ccccc1` was tested, and the TGI was > 100 µM.

These molecules were tested on SNB-75 CNS (assay: NCI-60 cell line screen, 48 h).
`COc1ccc2ccc3oc(=O)c(C)cc3c2c1` was tested, and the TGI was > 100 µM. `CCCCCCN(CCCCCC)C(=S)N/N=C(\C)c1ccccn1` was tested, and the TGI was 3.68 µM. `O=c1c(F)cn2c(=O)n1CCCCCCCn1c(=O)c(F)cn(c1=O)CCCCCCC2` was tested, and the TGI was 27 µM. For `Cc1nnc2n(c1=O)CCCN2C`, the TGI was > 100 µM. `O=C(ON=C1c2ccccc2C(Br)C(Br)c2ccccc21)c1ccccc1` (stereo not given) was tested, and the TGI was > 65.9 µM. Molecule `CC(=O)c1ccc(Oc2c3ccccc3nc3ccccc23)cc1` has a TGI of 29.7 µM. `Cn1c2ccccc2n2c3ncccc3c(=O)c(C#N)c12` was tested, and the TGI was > 79.9 µM. With `S=C(Cc1ccc2c(c1)Sc1ccccc1O2)N1CCOCC1` the TGI was 60.6 µM. Work on `C[n+]1cc2cc(O)c(O)cc2c2ccc3cc(O)c(O)cc3c21` yielded a TGI of 59.3 µM. `COc1ccc(N=Nc2c(-c3c(OC)cc4occc4c3OC)[nH]c(=O)c(C#N)c2C)cc1` was tested, and the TGI was > 100 µM. With `O=C(/C=C/c1ccc(Cl)cc1)Oc1ccc(C=C2CCC/C(=C\c3ccc(OC(=O)/C=C/c4ccc(Cl)cc4)cc3)C2=O)cc1` the TGI was > 100 µM. `COc1ccc2c(c1)c1c(n2CCN2CCCCC2)-c2cccc(OC)c2CC1` gave a TGI of 46.1 µM. With `COc1ccc2nc(NC(=O)/C(C#N)=C/c3ccccc3)sc2c1` the TGI was > 87.8 µM. In the case of `Cc1c(C)n(-c2ccccc2)c2nc(S(C)=O)nc(S(C)=O)c12` (stereo not given), the TGI is reported as 23.3 µM. For `CC1(C)CC(=O)C2=C(C1)C(c1ccccc1Cl)C1C(=O)CC(C)(C)CC1(O)O2` (stereo not given), the TGI was > 100 µM. Molecule `Cn1nc(-c2ccc(S(=O)(=O)/N=C(\NN)Nc3ccc(Cl)cc3)s2)cc1C(F)(F)F` has a TGI of 29.9 µM. With `Cc1ccc2c(c1C)C(=O)C1(Cc3cc4c(cc3C1=O)CCC4)C2` (stereo not given) the TGI was > 100 µM. For `CCCCI(O)OS(=O)(=O)c1ccc(C)cc1`, the TGI was > 100 µM. In the case of `C[C@@H]1CC[C@@]2(C)C(C(=O)O)=CCCC2[C@@]1(C)CC(=O)c1ccoc1` (stereo not given in full), the TGI is reported as > 25 µM. `O=C(CCc1cc(O)cc(O)c1)NCCc1cc(OCc2ccccc2)cc(OCc2ccccc2)c1` was tested, and the TGI was 24.5 µM. `Clc1cccc(-c2sc(-c3cccs3)cc2Cc2cccs2)c1` was tested, and the TGI was > 10 µM. In the case of `c1ccc(C2=NC3OC2c2ccccc23)cc1` (stereo not given), the TGI is reported as > 10 µM. In the case of `CCOC(=O)CSc1nc(N)c2c(-c3ccccc3)c3c(nc2n1)CCCC3`, the TGI is reported as > 100 µM. `COC(=O)/C=C(/C=C1/C(C#N)=C(N)N(c2ccc(Cl)cc2)C1(C)/C(=C\C(=O)OC)C(=O)OC)C(=O)OC` (stereo not given) gave a TGI of 63.3 µM. `CCOC(=O)c1c(N2CCCC2)[nH]c(=O)c(C(c2ccc(OC)cc2)c2c(O)c(C(=O)OCC)c(N3CCCC3)[nH]c2=O)c1O` was tested, and the TGI was 69 µM. Work on `CCOC1C=CC(=O)C(CO)O1` (stereo not given) yielded a TGI of 33.5 µM. `CN(C)C(=O)C(F)(F)C(c1ccc(F)cc1)C1C(=O)N(C)C(=O)N(C)C1=O` (stereo not given) was tested, and the TGI was > 100 µM. With `Cc1c2cccc-2c2cc(O)c3ccccc3c2n1-c1ccc(N(C)C)cc1` the TGI was 17.5 µM. `O=c1[nH]c(NCc2ccncc2)nc2nc[nH]c12` was tested, and the TGI was > 100 µM. With `O=CC(I)=C(c1ccccc1)c1ccccc1` the TGI was > 52.7 µM. For `c1c[nH]c(-c2cccc3nsnc23)c1`, the TGI was > 100 µM. For `Cn1c2ccccc2c2ccc3c(c21)C(=O)c1ccc2c4ccccc4n(C)c2c1C3=O`, the TGI was > 100 µM. With `Cc1ccc(-c2cc(-c3ccco3)c(C#N)c(=S)[nH]2)cc1` the TGI was > 100 µM. `NS(=O)(=O)c1nnc(NC(=O)N(c2ccccc2)c2ccccc2)s1` showed a TGI of 72.4 µM. For `COCOc1ccc(C(=O)Oc2cccc3c2OC(C)(C)O3)c(OCOC)c1`, the TGI was > 100 µM. `CN(C)CCN(c1ccccn1)c1ccccn1` was tested, and the TGI was > 100 µM. `CC(C)NC(=O)OCc1c(COC(=O)NC(C)C)n(C)c2c1ccc1sccc12` gave a TGI of 32.4 µM. `O=C(CC(NC(=O)C(F)(F)F)C(=O)O)OCc1ccccc1` (stereo not given) was tested, and the TGI was > 100 µM. In the case of `CN(/N=C1\C(=O)Nc2ccccc21)c1ccccc1`, the TGI is reported as > 100 µM.
